Literature values in PubChem BioAssay AID1259409 (Chemical Carcinogenesis Research Information System (CCRIS), 2018).

System: rodent chemically induced tumor inhibition, incidence and multiplicity
Assay: CCRIS tumor inhibitor studies

O=C1O[C@H]([C@@H](O)CO)C(O)=C1O
tumour outcome (control, treated, inhibition, significance) (Carcinogen: 7,12-DIMETHYLBENZ[A]ANTHRACENE, 57-97-6, Dose [Inhibitor]: 0, 5000 PPM IN DRINKING WATER FOR 5 MO (STUDY DURATION: 5 MO), Route [Inhibitor]: ORAL, Species: RAT, Strain/Sex: SWISS/FEMALE, Target Tissue: Type of Lesion: MAMMARY GLAND: CRIBRIFORM CARCINOMA, Dose [Carcinogen]: 10 MG ONCE, Promoter: NONE USED): 85%, 50%, 41%, not calculated
tumour outcome (control, treated, inhibition, significance) (Carcinogen: 7,12-DIMETHYLBENZ[A]ANTHRACENE, 57-97-6, Dose [Inhibitor]: 0.2% IN 0.25 ML OF 20:80 WATER-ACETONE DAILY FOR 20 D BEGINNING 1 D POST CARCINOGEN TREATMENT (STUDY DURATION: 19 WK), Route [Inhibitor]: DERMAL, Species: MOUSE, Strain/Sex: ICR/FEMALE, Target Tissue: Type of Lesion: SKIN: PAPILLOMA, Dose [Carcinogen]: 0.125 MG IN 0.25 ML ACETONE ONCE, Promoter: CROTON OIL, 8001-28-3): 43%, 48%, -12%, not significant
tumour outcome (control, treated, inhibition, significance) (Carcinogen: 7,12-DIMETHYLBENZ[A]ANTHRACENE, 57-97-6, Dose [Inhibitor]: 1000 UG APPLIED ONCE 5 MIN PRIOR TO CARCINOGEN DOSE (STUDY DURATION: 28 WK), Route [Inhibitor]: DERMAL, Species: MOUSE, Strain/Sex: CD-1/FEMALE, Target Tissue: Type of Lesion: SKIN: PAPILLOMA, Dose [Carcinogen]: 2.56 UG ONCE, Promoter: 12-O-TETRADECANOYLPHORBOL-13-ACETATE, 16561-29-8): 82%, 56%, 32%, not calculated
tumour outcome (control, treated, inhibition, significance) (Carcinogen: 17BETA-ESTRADIOL, 50-28-2, Dose [Inhibitor]: 1% (W/V) IN REVERSED OSMOSIS DEIONIZED DRINKING WATER FOR 103 D STARTING 93 D AFTER START OF STUDY (STUDY DURATION: 196, Route [Inhibitor]: ORAL, Species: HAMSTER, Strain/Sex: SYRIAN/MALE, Target Tissue: Type of Lesion: KIDNEY: CARCINOMA, Dose [Carcinogen]: 90% OF 31 MG PELLET AT START OF STUDY AND 90% OF 45 MG PELLET 3 MO LATER, Promoter: NONE USED): 16/23 (70%), 9/19 (47%), 33%, not significant
tumour outcome (control, treated, inhibition, significance) (Carcinogen: 17BETA-ESTRADIOL, 50-28-2, Dose [Inhibitor]: 1% (W/V) IN REVERSED OSMOSIS DEIONIZED DRINKING WATER FOR FIRST 92 D OF STUDY (STUDY DURATION: 196 D), Route [Inhibitor]: ORAL, Species: HAMSTER, Strain/Sex: SYRIAN/MALE, Target Tissue: Type of Lesion: KIDNEY: CARCINOMA, Dose [Carcinogen]: 90% OF 31 MG PELLET AT START OF STUDY AND 90% OF 45 MG PELLET 3 MO LATER, Promoter: NONE USED): 16/23 (70%), 15/17 (88%), -26%, not significant
tumour outcome (control, treated, inhibition, significance) (Carcinogen: 17BETA-ESTRADIOL, 50-28-2, Dose [Inhibitor]: 1% IN REVERSED OSMOSIS DEIONIZED DRINKING WATER FOR DURATION OF STUDY (STUDY DURATION: 196 D), Route [Inhibitor]: ORAL, Species: HAMSTER, Strain/Sex: SYRIAN/MALE, Target Tissue: Type of Lesion: KIDNEY: CARCINOMA, Dose [Carcinogen]: 90% OF 31 MG PELLET AT START OF STUDY AND 90% OF 45 MG PELLET 3 MO LATER, Promoter: NONE USED): 16/23 (70%), 10/33 (30%), 57%, p<0.005
tumour outcome (control, treated, inhibition, significance) (Carcinogen: AMINOPYRENE, 1606-67-3, SODIUM NITRITE, 7632-00-0, Carcinogen: AMINOPYRENE, 1606-67-3, SODIUM NITRITE, 7632-00-0, Dose [Inhibitor]: 7 G/KG OF DIET FOR DURATION OF STUDY (STUDY DURATION: 40 WK), Route [Inhibitor]: ORAL, Species: RAT, Strain/Sex: SPRAGUE-DAWLEY/MALE, Target Tissue: Type of Lesion: LIVER: TUMORS, Dose [Carcinogen]: AMINOPYRENE 1 G/L AND SODIUM NITRITE 1 G/L IN DRINKING WATER 5 D/WK FOR 40 WK, Promoter: NONE USED): 12/37 (32%), 0/39 (0%), 100%, not calculated
tumour outcome (control, treated, inhibition, significance) (Carcinogen: AMINOPYRENE, 1606-67-3, SODIUM NITRITE, 7632-00-0, Carcinogen: AMINOPYRENE, 1606-67-3, SODIUM NITRITE, 7632-00-0, Dose [Inhibitor]: 7 G/KG OF DIET FOR DURATION OF STUDY (STUDY DURATION: 40 WK), Route [Inhibitor]: ORAL, Species: RAT, Strain/Sex: SPRAGUE-DAWLEY/MALE, Target Tissue: Type of Lesion: LUNG: TUMORS, Dose [Carcinogen]: AMINOPYRENE 1 G/L AND SODIUM NITRITE 1 G/L IN DRINKING WATER 5 D/WK FOR 40 WK, Promoter: NONE USED): 25/37 (68%), 13/39 (33%), 51%, not calculated
tumour outcome (control, treated, inhibition, significance) (Carcinogen: AMINOPYRENE, 1606-67-3, SODIUM NITRITE, 7632-00-0, Carcinogen: AMINOPYRENE, 1606-67-3, SODIUM NITRITE, 7632-00-0, Dose [Inhibitor]: 7 G/KG OF DIET FOR THE DURATION OF STUDY (STUDY DURATION: 40 WK), Route [Inhibitor]: ORAL, Species: RAT, Strain/Sex: SPRAGUE-DAWLEY/MALE, Target Tissue: Type of Lesion: KIDNEY: TUMORS, Dose [Carcinogen]: AMINOPYRINE 1 G/L AND SODIUM NITRITE 1 G/L IN DRINKING WATER 5 D/WK FOR 40 WK, Promoter: NONE USED): 10/37 (27%), 7/39 (18%), 33%, not calculated
tumour outcome (control, treated, inhibition, significance) (Carcinogen: BENZO[A]PYRENE, 50-32-8, Dose [Inhibitor]: 0, 10 MG/ML IN DRINKING WATER FOR 6 WK (STUDY DURATION: 9 WK), Route [Inhibitor]: ORAL, Species: MOUSE, Strain/Sex: NIGP(S)/FEMALE, Target Tissue: Type of Lesion: LUNG: ADENOMA, Dose [Carcinogen]: 0.5 MG INJECTED IN THE SCAPULAR REGION OF NEWBORN MICE ONCE, Promoter: NONE USED): 56%, 35%, 38%, not calculated
tumour outcome (control, treated, inhibition, significance) (Carcinogen: BENZO[A]PYRENE, 50-32-8, Dose [Inhibitor]: 0, 10 MG/ML IN DRINKING WATER FOR 6 WK (STUDY DURATION: 9 WK), Route [Inhibitor]: ORAL, Species: MOUSE, Strain/Sex: NIGP(S)/MALE, Target Tissue: Type of Lesion: LUNG: ADENOMA, Dose [Carcinogen]: 0.5 MG INJECTED IN THE SCAPULAR REGION OF NEWBORN MICE ONCE, Promoter: NONE USED): 38%, 24%, 37%, not calculated
tumour outcome (control, treated, inhibition, significance) (Carcinogen: BENZO[A]PYRENE, 50-32-8, Dose [Inhibitor]: 0.068 MMOL/G IN DIET FOR 5 WK BEGINNING 1 WK PRIOR TO CARCINOGEN DOSE (STUDY DURATION: 21 WK), Route [Inhibitor]: ORAL, Species: MOUSE, Strain/Sex: ICR/HA/FEMALE, Target Tissue: Type of Lesion: FORESTOMACH: TUMOR, Dose [Carcinogen]: 1 MG IN 0.2 ML CORN OIL 2/WK FOR 4 WK, Promoter: NONE USED): 100%, 95%, 5%, not significant
tumour outcome (control, treated, inhibition, significance) (Carcinogen: DIETHYLNITROSAMINE, 55-18-5, Dose [Inhibitor]: 0, 3 G/L IN DRINKING WATER BEGINNING 1 D PRIOR TO FIRST CARCINOGEN DOSE AND CONTINUING TO 2 D POST LAST CARCINOGEN DOSE, Route [Inhibitor]: ORAL, Species: RAT, Strain/Sex: BD6/FEMALE, Target Tissue: Type of Lesion: ESOPHAGUS: TUMOR, Dose [Carcinogen]: 80 MG/KG BW 1/WK FOR 8 WK, Promoter: NONE USED): 31%, 28%, 10%, not significant
